According to US11180452B2, “Methods and compositions for selectively inhibiting pathogenic microbes” (priority 2019, dated 2021):
In brackets after ≈: the same amount, converted by molar mass. Several values for one entry are separate records, joined by “and”; a condition that tells them apart may be missing. Equal entries are not always repeated. Where two headings read alike, the source gives them in different places.

Columns and labels:
Candida glabrata = Candida glabrata MIC / MFC; type: cell-based; conditions: Nakaseomyces glabratus, Candida glabrata #584 (Table 2); for MIC: read-out: MIC; for MFC: minimum fungicidal concentration, read-out: MFC
Bacillus subtilis = Bacillus subtilis MIC / MBC; type: cell-based; conditions: for MBC: Bacillus subtilis NRRL: B-571, minimum bactericidal concentration; for MIC: Bacillus subtilis, Bacillus subtilis (Ehrenberg 1835) Cohn 1872 NRRL: B-571, read-out: MIC
Trichophyton rubrum = experiment: MIC against Trichophyton rubrum; type: cell-based; conditions: Trichophyton rubrum Castellani Sabouraud ATCC: 28188; read-out: MIC
Bacillus thuringiensis = type: cell-based; conditions: Bacillus thuringiensis Berliner ATCC: 10792; for MIC: Bacillus thuringiensis, read-out: MIC
[1] = tested on: Francisella tularensis subsp. Holarctica Strain LVSR NR-597; experiment: microbe, parasite or virus in culture; type: cell-based
[2] = tested on: Burkholderia thailandensis Brett et al ATCC: 700388; experiment: microbe, parasite or virus in culture; type: cell-based
[3] = tested on: Francisella tularensis strains; experiment: microbe, parasite or virus in culture; type: cell-based
[4] = Toxicity in mice, body weight over 7 days; type: in vivo, Balb/c mice; conditions: for Animal body weight (kg) Day 0 / Animal body weight (kg) Day 1 / Animal body weight (kg) Day 2 / Animal body weight (kg) Day 3 / Animal body weight (kg) Day 4 / Animal body weight (kg) Day 5 / Animal body weight (kg) Day 6 / Animal body weight (kg) Day 7: mice, IP; for Animal body weight (kg) Day 0: Day 0, individual animals; for Animal body weight (kg) Day 1: Day 1, individual animals; for Animal body weight (kg) Day 2: Day 2, individual animals; for Animal body weight (kg) Day 3: Day 3, individual animals; for Animal body weight (kg) Day 4: Day 4, individual animals; for Animal body weight (kg) Day 5: Day 5, individual animals; for Animal body weight (kg) Day 6: Day 6, individual animals; for Animal body weight (kg) Day 7: Day 7, individual animals
Excerpt: The vehicle is 40% PEG300 solution in 0.9% NaCl. […] Thus, the compounds are useful for in vivo antimicrobial administration.

COC(=O)c1ccc2[nH]cc(Sc3ccc(Br)cc3)c2c1 [Compound 172G, methyl 3-((4-bromophenyl)thio)-1H-indole-5-carboxylate]
MIC (Candida glabrata): > 50 µg/mL
MBC (Bacillus subtilis): 45 µg/mL (≈ 124 µM)
MIC (Bacillus subtilis): 11.3 µg/mL (≈ 31.2 µM)
MIC (Trichophyton rubrum): 18.1 µg/mL (≈ 50 µM)
MBC (Bacillus thuringiensis): > 45 µg/mL
MIC (Bacillus thuringiensis): 11.3 µg/mL (≈ 31.2 µM)

Brc1ccc(Sc2c[nH]c3cc(Br)ccc23)cc1 [Compound 174A, 6-bromo-3-((4-bromophenyl)thio)-1H-indole]
MIC [1]: 1.56 µg/mL (≈ 4.07 µM)
MIC (Candida glabrata): 12.5 µg/mL (≈ 32.6 µM)
MIC [2]: > 50 µg/mL
MBC (Bacillus subtilis): 6.25 µg/mL (≈ 16.3 µM)
MIC (Bacillus subtilis): 3.13 µg/mL (≈ 8.17 µM)
MBC (Bacillus thuringiensis): 3.13 µg/mL (≈ 8.17 µM)
MIC (Bacillus thuringiensis): 3.13 µg/mL (≈ 8.17 µM)

Brc1ccc2[nH]cc(Sc3ccccc3)c2c1 [Compound 174AA, 5-bromo-3-(phenylthio)-1H-indole]
MIC [1]: 4 µg/mL (≈ 13.1 µM)
MFC (Candida glabrata): 6.25 µg/mL (≈ 20.5 µM)
MIC (Candida glabrata): 3.13 µg/mL (≈ 10.3 µM)
MIC [2]: > 50 µg/mL
MBC (Bacillus subtilis): 16 µg/mL (≈ 52.6 µM)
MIC (Bacillus subtilis): 4 µg/mL (≈ 13.1 µM)
MBC (Bacillus thuringiensis): 16 µg/mL (≈ 52.6 µM)
MIC (Bacillus thuringiensis): 8 µg/mL (≈ 26.3 µM)

Clc1cc2[nH]cc(Sc3ccc(Br)cc3)c2cc1Br [Compound 174AF, 5-bromo-3-((4-bromophenyl)thio)-6-chloro-1H-indole]
MIC [1]: 4 µg/mL (≈ 9.58 µM)
MIC (Candida glabrata): > 50 µg/mL
MIC [2]: > 50 µg/mL
MBC (Bacillus subtilis): 50 µg/mL (≈ 120 µM)
MIC (Bacillus subtilis): 4 µg/mL (≈ 9.58 µM)
MBC (Bacillus thuringiensis): 4 µg/mL (≈ 9.58 µM)
MIC (Bacillus thuringiensis): 2 µg/mL (≈ 4.79 µM)

Fc1ccccc1Sc1c[nH]c2ccc(Br)cc12 [Compound 174AU, 5-bromo-3-((2-fluorophenyl)thio)-1H-indole]
MIC [1]: 0.25 µg/mL (≈ 0.776 µM)
MIC50 [3]: 2 µg/mL (≈ 6.21 µM)
MIC ([3]; read-out: F. tularensis BSL-3 MIC, Strain 100): 8 µg/mL (≈ 24.8 µM)
MIC ([3]; read-out: F. tularensis BSL-3 MIC, strain HN-63): 2 µg/mL (≈ 6.21 µM)
MIC ([3]; read-out: F. tularensis BSL-3 MIC, strain LVS): 2 µg/mL (≈ 6.21 µM)
MIC ([3]; read-out: F. tularensis BSL-3 MIC, strain MA00-2987): 2 µg/mL (≈ 6.21 µM)
MIC ([3]; read-out: F. tularensis BSL-3 MIC, strain MO #1): 1.83 µg/mL (≈ 5.68 µM)
MIC ([3]; read-out: F. tularensis BSL-3 MIC, strain MO #2): 1.67 µg/mL (≈ 5.18 µM)
MIC ([3]; read-out: F. tularensis BSL-3 MIC, strain MO #3): 2 µg/mL (≈ 6.21 µM)
MIC ([3]; read-out: F. tularensis BSL-3 MIC, strain OR-96): 4 µg/mL (≈ 12.4 µM)
MIC ([3]; read-out: F. tularensis BSL-3 MIC, strain SCHU S4): 4 µg/mL (≈ 12.4 µM)
MIC ([3]; read-out: F. tularensis BSL-3 MIC, strain WY-96): 1.5 µg/mL (≈ 4.66 µM)
MIC ([3]; read-out: MAX, highest MIC over the Francisella tularensis strains): 8 µg/mL (≈ 24.8 µM)
MIC ([3]; read-out: MIN, lowest MIC over the Francisella tularensis strains): 1.5 µg/mL (≈ 4.66 µM)
MFC (Candida glabrata): 50 µg/mL (≈ 155 µM)
MIC (Candida glabrata): 3.13 µg/mL (≈ 9.71 µM)
toxicity in mice by body weight ([4]; 6-week-old Balb/c mice, body weight over 7 days, vehicle 40% PEG300 in 0.9% NaCl): did not have significant toxicity
Animal body weight (kg) Day 0 ([4]; 0.1 mg/kg, 0.1 mg/kg): 0.026 kg and 0.023 kg and 0.024 kg
Animal body weight (kg) Day 1 ([4]; 0.1 mg/kg, 0.1 mg/kg): 0.024 kg and 0.022 kg and 0.023 kg
Animal body weight (kg) Day 2 ([4]; 0.1 mg/kg, 0.1 mg/kg): 0.025 kg and 0.022 kg and 0.023 kg
Animal body weight (kg) Day 3 ([4]; 0.1 mg/kg, 0.1 mg/kg): 0.025 kg and 0.022 kg and 0.023 kg
Animal body weight (kg) Day 4 ([4]; 0.1 mg/kg, 0.1 mg/kg): 0.025 kg and 0.022 kg and 0.023 kg
Animal body weight (kg) Day 5 ([4]; 0.1 mg/kg, 0.1 mg/kg): 0.025 kg and 0.023 kg and 0.024 kg
Animal body weight (kg) Day 6 ([4]; 0.1 mg/kg, 0.1 mg/kg): 0.025 kg and 0.022 kg and 0.023 kg
Animal body weight (kg) Day 7 ([4]; 0.1 mg/kg, 0.1 mg/kg): 0.024 kg and 0.022 kg and 0.023 kg
Animal body weight (kg) Day 0 ([4]; 1 mg/kg, 1 mg/kg): 0.026 kg and 0.022 kg and 0.025 kg
Animal body weight (kg) Day 1 ([4]; 1 mg/kg, 1 mg/kg): 0.025 kg (2×) and 0.022 kg
Animal body weight (kg) Day 2 ([4]; 1 mg/kg, 1 mg/kg): 0.026 kg and 0.022 kg and 0.025 kg
Animal body weight (kg) Day 3 ([4]; 1 mg/kg, 1 mg/kg): 0.026 kg and 0.022 kg and 0.025 kg
Animal body weight (kg) Day 4 ([4]; 1 mg/kg, 1 mg/kg): 0.026 kg and 0.023 kg and 0.025 kg
Animal body weight (kg) Day 5 ([4]; 1 mg/kg, 1 mg/kg): 0.026 kg and 0.023 kg and 0.025 kg
Animal body weight (kg) Day 6 ([4]; 1 mg/kg, 1 mg/kg): 0.025 kg (2×) and 0.023 kg
Animal body weight (kg) Day 7 ([4]; 1 mg/kg, 1 mg/kg): 0.026 kg and 0.024 kg and 0.025 kg
Animal body weight (kg) Day 0 ([4]; 10 mg/kg, 10 mg/kg): 0.024 kg (2×) and 0.025 kg
Animal body weight (kg) Day 1 ([4]; 10 mg/kg, 10 mg/kg): 0.023 kg (2×) and 0.024 kg
Animal body weight (kg) Day 2 ([4]; 10 mg/kg, 10 mg/kg): 0.023 kg (2×) and 0.025 kg
Animal body weight (kg) Day 3 ([4]; 10 mg/kg, 10 mg/kg): 0.024 kg and 0.023 kg and 0.025 kg
Animal body weight (kg) Day 4 ([4]; 10 mg/kg, 10 mg/kg): 0.023 kg (2×) and 0.025 kg
Animal body weight (kg) Day 5 ([4]; 10 mg/kg, 10 mg/kg): 0.023 kg (2×) and 0.026 kg
Animal body weight (kg) Day 6 ([4]; 10 mg/kg, 10 mg/kg): 0.022 kg and 0.023 kg and 0.026 kg
Animal body weight (kg) Day 7 ([4]; 10 mg/kg, 10 mg/kg): 0.022 kg and 0.023 kg and 0.026 kg
MBC (Bacillus subtilis): 2 µg/mL (≈ 6.21 µM)
MIC (Bacillus subtilis): 1 µg/mL (≈ 3.1 µM)
MBC (Bacillus thuringiensis): 2 µg/mL (≈ 6.21 µM)
MIC (Bacillus thuringiensis): 1 µg/mL (≈ 3.1 µM)

Brc1ccc2[nH]cc(Sc3cccc4ccccc34)c2c1 [Compound 174G, 5-bromo-3-(naphthalen-1-ylthio)-1H-indole]
MIC (Candida glabrata): > 50 µg/mL
MIC [2]: > 50 µg/mL
MBC (Bacillus subtilis): 50 µg/mL (≈ 141 µM)
MIC (Bacillus subtilis): 1.56 µg/mL (≈ 4.4 µM)
MIC (Trichophyton rubrum): 2.21 µg/mL (≈ 6.24 µM)
MBC (Bacillus thuringiensis): 3.13 µg/mL (≈ 8.84 µM)
MIC (Bacillus thuringiensis): 1.56 µg/mL (≈ 4.4 µM)

Brc1ccc2[nH]cc(SCc3ccccc3)c2c1 [Compound 174K, 3-(benzylthio)-5-bromo-1H-indole]
MFC (Candida glabrata): 12.5 µg/mL (≈ 39.3 µM)
MIC (Candida glabrata): 6.25 µg/mL (≈ 19.6 µM)
MIC [2]: > 50 µg/mL
MBC (Bacillus subtilis): 6.25 µg/mL (≈ 19.6 µM)
MIC (Bacillus subtilis): 3.13 µg/mL (≈ 9.84 µM)
MIC (Trichophyton rubrum): 1.98 µg/mL (≈ 6.22 µM)
MBC (Bacillus thuringiensis): 6.25 µg/mL (≈ 19.6 µM)
MIC (Bacillus thuringiensis): 3.13 µg/mL (≈ 9.84 µM)

Brc1ccc2[nH]cc(Sc3nc4ccccc4s3)c2c1 [Compound 174L, 2-((5-bromo-1H-indol-3-yl)thio)benzo[d]thiazole]
MIC (Candida glabrata): > 50 µg/mL
MIC [2]: > 50 µg/mL
MBC (Bacillus subtilis): > 50 µg/mL
MIC (Bacillus subtilis): 1.56 µg/mL (≈ 4.32 µM)
MIC (Trichophyton rubrum): > 18 µg/mL
MBC (Bacillus thuringiensis): 50 µg/mL (≈ 138 µM)
MIC (Bacillus thuringiensis): 1.56 µg/mL (≈ 4.32 µM)

Brc1ccc(CSc2c[nH]c3ccc(Br)cc23)cc1 [Compound 174O, 5-bromo-3-((4-bromobenzyl)thio)-1H-indole]
MIC (Candida glabrata): > 50 µg/mL
MIC [2]: > 50 µg/mL
MBC (Bacillus subtilis): > 50 µg/mL
MIC (Bacillus subtilis): 3.13 µg/mL (≈ 7.88 µM)
MIC (Trichophyton rubrum): 1.24 µg/mL (≈ 3.12 µM)
MBC (Bacillus thuringiensis): 3.13 µg/mL (≈ 7.88 µM)
MIC (Bacillus thuringiensis): 3.13 µg/mL (≈ 7.88 µM)

COc1ccc(Sc2c[nH]c3ccc(Br)cc23)cc1 [Compound 174Q, 5-bromo-3-((4-methoxyphenyl)thio)-1H-indole]
MFC (Candida glabrata): > 50 µg/mL
MIC (Candida glabrata): 3.13 µg/mL (≈ 9.36 µM)
MIC [2]: > 50 µg/mL
MBC (Bacillus subtilis): > 50 µg/mL
MIC (Bacillus subtilis): 1.56 µg/mL (≈ 4.67 µM)
MIC (Trichophyton rubrum): 2.08 µg/mL (≈ 6.22 µM)
MBC (Bacillus thuringiensis): 12.5 µg/mL (≈ 37.4 µM)
MIC (Bacillus thuringiensis): 1.56 µg/mL (≈ 4.67 µM)

Brc1ccc2[nH]cc(Sc3ccc(-c4ccccc4)cc3)c2c1 [Compound 174R, 3-([1,1′-biphenyl]-4-ylthio)-5-bromo-1H-indole]
MIC (Candida glabrata): > 50 µg/mL
MIC [2]: > 50 µg/mL
MIC (Bacillus subtilis): > 50 µg/mL
MIC (Trichophyton rubrum): > 9.5 µg/mL
MIC (Bacillus thuringiensis): > 50 µg/mL

Brc1ccc2[nH]cc(Sc3ccc4ccccc4c3)c2c1 [Compound 174S, 5-bromo-3-(naphthalen-2-ylthio)-1H-indole]
MIC (Candida glabrata): > 50 µg/mL
MIC [2]: > 50 µg/mL
MIC (Bacillus subtilis): > 50 µg/mL
MIC (Trichophyton rubrum): > 8.82 µg/mL
MIC (Bacillus thuringiensis): > 50 µg/mL
